From the NIST ThermoML archive (doi:10.1021/je800395m)
Several values for one entry are separate records, joined by “and”; a condition that tells them apart may be missing. Identical values can stand only once. ± gives the expanded uncertainty stated by the source.

Details: for Normal melting temperature: DTA

c1ccc2cc3cc4ccccc4cc3cc2c1 [2,3-benzanthracene]
Crystal 2
Details	vapor or sublimation pressure [kPa]
399 K	1.46e-05 ± 1.5e-06
404.4 K	2.1e-05 ± 2.2e-06
405.6 K	2.55e-05 ± 2.6e-06
409.5 K	3.39e-05 ± 3.5e-06
410.6 K	4.22e-05 ± 4.3e-06
414.6 K	5.42e-05 ± 5.5e-06
415.8 K	6.67e-05 ± 6.8e-06
416.6 K	6.39e-05 ± 6.5e-06
418.6 K	7.84e-05 ± 8e-06
419.6 K	8.46e-05 ± 8.8e-06
420.8 K	0.0001032 ± 1e-05
424.7 K	0.0001278 ± 1.3e-05
430.1 K	0.0002146 ± 2.2e-05

CC(C)[C@@H](C)/C=C/[C@@H](C)[C@H]1CC[C@H]2C3=CC=C4C[C@@H](O)CC[C@]4(C)[C@H]3CC[C@]12C [(22E)-ergosta-5,7,22-trien-3β-ol]
Crystal, Calculated from knudsen effusion weight loss
Details	vapor or sublimation pressure [kPa]
381.3 K	3.1e-06 ± 2e-07
383.8 K	4.4e-06 ± 3e-07
386.5 K	5.6e-06 ± 4e-07
394.4 K	1.42e-05 ± 8e-07
399.6 K	2.6e-05 ± 1.4e-06
402.3 K	3.54e-05 ± 1.9e-06
404.6 K	4.47e-05 ± 2.4e-06
407.2 K	5.91e-05 ± 3.3e-06
412.3 K	0.0001027 ± 5.4e-06

Details	Normal melting temperature [°C]
Crystal	158 ± 1

CC[C@H](/C=C/[C@@H](C)[C@H]1CC[C@H]2[C@@H]3CC=C4C[C@@H](O)CC[C@]4(C)[C@H]3CC[C@]12C)C(C)C [(22E)-stigmasta-5,22-dien-3β-ol]
Crystal, Calculated from knudsen effusion weight loss
Details	vapor or sublimation pressure [kPa]
390.9 K	3.9e-06 ± 2e-07
392 K	4.6e-06 ± 3e-07
393.5 K	5.6e-06 ± 3e-07
396.1 K	8.2e-06 ± 5e-07
397.2 K	9.4e-06 ± 5e-07
398.7 K	1.15e-05 ± 7e-07
401.2 K	1.61e-05 ± 9e-07
403.9 K	2.2e-05 ± 1e-06
406.3 K	2.96e-05 ± 1.7e-06
408.9 K	4.11e-05 ± 2.3e-06
411.5 K	5.38e-05 ± 3e-06
414 K	7.23e-05 ± 4e-06
416.6 K	9.54e-05 ± 5.1e-06

Details	Normal melting temperature [°C]
Crystal	162 ± 1

CC(C)CCC[C@@H](C)[C@H]1CC[C@H]2[C@@H]3CC=C4C[C@@H](O)CC[C@]4(C)[C@H]3CC[C@]12C [.DELTA.5-cholesten-3β-ol]
Crystal, Calculated from knudsen effusion weight loss
Details	vapor or sublimation pressure [kPa]
386.6 K	1.18e-05 ± 7e-07
392 K	2.13e-05 ± 1.2e-06
397.3 K	3.95e-05 ± 2.2e-06
403.1 K	7.14e-05 ± 3.9e-06
408.2 K	0.0001251 ± 6.8e-06
413.8 K	0.0002146 ± 1.1e-05

Details	Normal melting temperature [°C]
Crystal	148 ± 1

c1ccc2cc3ccccc3cc2c1 [anthracene]
Crystal, Calculated from knudsen effusion weight loss
Details	vapor or sublimation pressure
319.6 K	1.3e-05 ± 8e-07 kPa and 1.29e-05 ± 8e-07 kPa
323.9 K	2.14e-05 ± 1.2e-06 kPa
326.8 K	3.04e-05 ± 1.7e-06 kPa
326.9 K	3e-05 ± 1.7e-06 kPa
331.7 K	5.29e-05 ± 2.7e-06 kPa
332.1 K	5.32e-05 ± 2.7e-06 kPa
332.2 K	5.41e-05 ± 2.9e-06 kPa
334 K	6.51e-05 ± 3.6e-06 kPa
334.2 K	6.59e-05 ± 3.7e-06 kPa
337 K	9.16e-05 ± 4.9e-06 kPa
339.4 K	0.0001131 ± 6.1e-06 kPa
342 K	0.0001487 ± 8.5e-06 kPa
349.7 K	0.0003165 ± 1.7e-05 kPa and 0.0003121 ± 1.7e-05 kPa
354.8 K	0.0005077 ± 2.7e-05 kPa

CC[C@H](CC[C@@H](C)[C@H]1CC[C@H]2[C@@H]3CC=C4C[C@@H](O)CC[C@]4(C)[C@H]3CC[C@]12C)C(C)C [β-sitosterol]
Crystal, Calculated from knudsen effusion weight loss
Details	vapor or sublimation pressure [kPa]
389.9 K	9.4e-06 ± 6e-07
392.4 K	1.27e-05 ± 7e-07
395.2 K	1.72e-05 ± 9e-07
397.7 K	2.23e-05 ± 1.2e-06
400.3 K	2.99e-05 ± 1.7e-06
405.6 K	5.2e-05 ± 3e-06
410.7 K	9.02e-05 ± 4.8e-06

Details	Normal melting temperature [°C]
Crystal	138 ± 1
